Test results published in ChEMBL document CHEMBL1146577, “Sulfemodin 8-O-beta-D-glucoside, a new sulfated anthraquinone glycoside, and antioxidant phenolic compounds from Rheum emodi” (J Nat Prod, 2003).
Values after ≈ are worked out from the molar mass of the structure shown.

What follows are compounds tested on Radical scavenging activity (assay: Antioxidant activity assessed as DPPH radical scavenging activity).
Format: functional

Row | SMILES | IC50 [µg/mL]
1 | Oc1cc(O)c2c(c1)O[C@H](c1ccc(O)c(O)c1)[C@H](O)C2 [(-)-EPICATECHIN] | 1.7 (≈ 5.86 µM)
2 | O=C1O[C@H]([C@@H](O)CO)C(O)=C1O [ASCORBIC ACID] | 3.9 (≈ 22.1 µM)
3 | COc1cc(O)cc2c1C(=O)C(O)(Cc1ccc(O)cc1)O2 (stereo unspecified) [CARPUSIN] | 4.7 (≈ 15.5 µM)
4 | Cc1cc(O)c2c(c1)C(=O)c1cccc(O)c1C2=O [CHRYSOPHANOL] | > 100
5 | Cc1cc(O)c2c(c1)C(=O)c1cc(O)cc(O)c1C2=O [EMODIN] | > 100
6 | O=C1c2c(O)cc(O)cc2OC1(O)Cc1ccc(O)cc1 (stereo unspecified) [MAESOPSIN] | 5.3 (≈ 18.4 µM)

Now from value to compound:

Row | IC50 [µg/mL] | SMILES
7 | 18.5 (≈ 45.3 µM) | COc1cc(O[C@@H]2O[C@H](CO)[C@@H](O)[C@H](O)[C@H]2O)c2c(O)c(C(C)=O)c(C)cc2c1
8 | > 100 | COc1cc(O)c2c(c1)C(=O)c1cc(C)cc(O[C@@H]3O[C@H](CO)[C@@H](O)[C@H](O)[C@H]3O)c1C2=O
9 | > 100 | Cc1cc(O[C@@H]2O[C@H](CO)[C@@H](O)[C@H](O)[C@H]2O)c2c(c1)C(=O)c1cc(O)cc(O)c1C2=O
10 | > 100 | COc1cc(O)c2c(c1)C(=O)c1cc(C)cc(O)c1C2=O [PHYSCION]
11 | > 100 | Cc1cc(O)c2c(c1)C(=O)c1cccc(O[C@@H]3O[C@H](CO)[C@@H](O)[C@H](O)[C@H]3O)c1C2=O [PULMATIN]
